From patent US20210222225A1, “Medium for Disk Diffusion Method to Evaluate Antibiotic Sensitivity” (priority 2018, published 2021)

Experiments:
[1] = test system: mcr-1-harboring Enterobacter aerogenes strain; assay: Colistin disk diffusion on modified Mueller-Hinton agar, mcr-1; type: cell-based
Method: (§1) To each MHA thus modified was added protamine (Sigma-Aldrich, St Louis, Mo., USA) at a concentration of 100 μg/ml, and solidification was performed. Then, on a surface of the medium was evenly inoculated each of colistin-susceptible (S) or -resistant (R) Acinetobacter calcoaceticus-baumannii complex (ACB) strain, Pseudomonas aeruginosa ATCC27853 strain, Escherichia coli ATCC25922 strain, and mcr-1-harboring Enterobacter aerogenes strain, and a colistin disk was placed thereon. Subsequently, a diameter of a growth inhibition zone (colistin inhibition zone), which had been formed clear by diffusion of colistin to the agar around the colistin disk, was measured.
(§2) As in Example 1, a concentration of agar particles (BD Diagnostic, Sparks, Md., USA) in Mueller-Hinton broth medium (BD Diagnostic) was adjusted to 17 g/L or 5.1 g/L that is 30% of 17 g/L. To select a concentration of protamine, which can enhance diffusion of colistin from a disk without interfering with bacterial growth, while using the protamine at various concentrations, protamine (Sigma-Aldrich, St Louis, Mo., USA) was added to the medium at concentrations of 1 mg/ml, 700 μg/ml, 400 μg/ml, 300 μg/ml, 200 μg/ml, 150 μg/ml, 100 μg/ml, and 50 μg/ml. Each medium thus modified was solidified. Then, on a surface of each medium was evenly inoculated each of colistin-susceptible (S) or -resistant (R) Acinetobacter calcoaceticus-baumannii complex (ACB) strain, Pseudomonas aeruginosa ATCC27853 strain, and mcr-1-harboring Enterobacter aerogenes strain, and a colistin disk was placed thereon. Then, it was determined whether each strain was grown, and a diameter of a growth inhibition zone, which had been formed around the disk, was measured.

[2] = test system: Pseudomonas aeruginosa ATCC27853 strain; assay: Colistin disk diffusion on modified Mueller-Hinton agar, PAE; type: cell-based
Method: as §1, §2

ABA A14_S = assay: Colistin disk diffusion, guanidine hydrochloride medium, A14_S; type: cell-based, Acinetobacter baumannii; details: 30% agar
Method: (§3) A concentration of agar particles (BD Diagnostic, Sparks, Md., USA) in Mueller-Hinton broth medium (BD Diagnostic) was adjusted to 5.1 g/L, which is 30% of 17 g/L, and guanidine hydrochloride was added to a concentration of 500 μg/ml, 50 μg/ml, or 5 μg/ml. Then, solidification was performed. On a surface of each medium thus prepared was evenly inoculated each of colistin-susceptible (S) or -resistant (R) Acinetobacter baumannii (ABA) strain, colistin-susceptible (S) or -resistant (R) Klebsiella pnemoniae (KPN) strain, and colistin-susceptible (S) or -resistant (R) Pseudomonas aeruginosa (PAE) strain, and a colistin disk was placed thereon. Then, pictures of a growth inhibition zone, which had been formed clear, around the disk were taken for each strain, and the results are illustrated in FIGS. 8 to 10.

KPN K3070_S = assay: Colistin disk diffusion, guanidine hydrochloride medium, K3070_S; type: cell-based, Klebsiella pnemoniae; details: 30% agar
Method: as §3

PAE P1618_R = assay: Colistin disk diffusion, guanidine hydrochloride medium, P1618_R; type: cell-based, Pseudomonas aeruginosa; details: 30% agar
Method: as §3

PAE P1624_R = assay: Colistin disk diffusion, guanidine hydrochloride medium, P1624_R; type: cell-based, Pseudomonas aeruginosa; details: 30% agar
Method: as §3

[3] = 30% agar, protamine 1,000 μg/ml
[4] = 100% agar, protamine 1,000 μg/ml
[5] = guanidine hydrochloride 5 μg/ml
[6] = guanidine hydrochloride 50 μg/ml
[7] = guanidine hydrochloride 500 μg/ml

## colistin
[1]; 30% agar, protamine 50 μg/ml
  Disk diffusion (mm): 9 mm
[1]; 30% agar, protamine 100 μg/ml
  Diameter (mm) of colistin inhibition zone: 11 mm
  Disk diffusion (mm): 9 mm
[1]; 30% agar, protamine 150 μg/ml
  Disk diffusion (mm): 9 mm
[1]; 30% agar, protamine 200 μg/ml
  Disk diffusion (mm): 8 mm
[1]; 30% agar, protamine 300 μg/ml
  Disk diffusion (mm): 6 mm
[1]; 30% agar, protamine 400 μg/ml
  Disk diffusion (mm): 6 mm
[1]; 30% agar, protamine 700 μg/ml
  Disk diffusion (mm): 6 mm
[1]; [3]
  Disk diffusion (mm): 6 mm
[1]; 40% agar, protamine 100 μg/ml
  Diameter (mm) of colistin inhibition zone: 10 mm
[1]; 50% agar, protamine 100 μg/ml
  Diameter (mm) of colistin inhibition zone: 11 mm
[1]; 60% agar, protamine 100 μg/ml
  Diameter (mm) of colistin inhibition zone: 10 mm
[1]; 70% agar, protamine 100 μg/ml
  Diameter (mm) of colistin inhibition zone: 10 mm
[1]; 80% agar, protamine 100 μg/ml
  Diameter (mm) of colistin inhibition zone: 9 mm
[1]; 90% agar, protamine 100 μg/ml
  Diameter (mm) of colistin inhibition zone: 10 mm
[1]; 100% agar, protamine 50 μg/ml
  Disk diffusion (mm): 9 mm
[1]; 100% agar, protamine 100 μg/ml
  Diameter (mm) of colistin inhibition zone: 10 mm
  Disk diffusion (mm): 9 mm
[1]; 100% agar, protamine 150 μg/ml
  Disk diffusion (mm): 10 mm
[1]; 100% agar, protamine 200 μg/ml
  Disk diffusion (mm): 9 mm
[1]; 100% agar, protamine 300 μg/ml
  Disk diffusion (mm): 10 mm
[1]; 100% agar, protamine 400 μg/ml
  Disk diffusion (mm): 8 mm
[1]; 100% agar, protamine 700 μg/ml
  Disk diffusion (mm): 10 mm
[1]; [4]
  Disk diffusion (mm): 6 mm
[2]; 30% agar, protamine 50 μg/ml
  Disk diffusion (mm): 17 mm
[2]; 30% agar, protamine 100 μg/ml
  Diameter (mm) of colistin inhibition zone: 16 mm
  Disk diffusion (mm): 18 mm
[2]; 30% agar, protamine 150 μg/ml
  Disk diffusion (mm): 18 mm
[2]; 30% agar, protamine 200 μg/ml
  Disk diffusion (mm): 20 mm
[2]; 30% agar, protamine 300 μg/ml
  Disk diffusion (mm): 6 mm
[2]; 30% agar, protamine 400 μg/ml
  Disk diffusion (mm): 6 mm
[2]; 30% agar, protamine 700 μg/ml
  Disk diffusion (mm): 6 mm
[2]; [3]
  Disk diffusion (mm): 6 mm
[2]; 40% agar, protamine 100 μg/ml
  Diameter (mm) of colistin inhibition zone: 15 mm
[2]; 50% agar, protamine 100 μg/ml
  Diameter (mm) of colistin inhibition zone: 14 mm
[2]; 60% agar, protamine 100 μg/ml
  Diameter (mm) of colistin inhibition zone: 15 mm
[2]; 70% agar, protamine 100 μg/ml
  Diameter (mm) of colistin inhibition zone: 14 mm
[2]; 80% agar, protamine 100 μg/ml
  Diameter (mm) of colistin inhibition zone: 14 mm
[2]; 90% agar, protamine 100 μg/ml
  Diameter (mm) of colistin inhibition zone: 13 mm
[2]; 100% agar, protamine 50 μg/ml
  Disk diffusion (mm): 14 mm
[2]; 100% agar, protamine 100 μg/ml
  Diameter (mm) of colistin inhibition zone: 13 mm
  Disk diffusion (mm): 14 mm
[2]; 100% agar, protamine 150 μg/ml
  Disk diffusion (mm): 14 mm
[2]; 100% agar, protamine 200 μg/ml
  Disk diffusion (mm): 13 mm
[2]; 100% agar, protamine 300 μg/ml
  Disk diffusion (mm): 14 mm
[2]; 100% agar, protamine 400 μg/ml
  Disk diffusion (mm): 15 mm
[2]; 100% agar, protamine 700 μg/ml
  Disk diffusion (mm): 17 mm
[2]; [4]
  Disk diffusion (mm): 18 mm
ABA A14_S; [5]
  Disk diffusion (mm): 15 mm
ABA A14_S; [6]
  Disk diffusion (mm): 15 mm
ABA A14_S; [7]
  Disk diffusion (mm): 15 mm
KPN K3070_S; [5]
  Disk diffusion (mm): 17 mm
KPN K3070_S; [6]
  Disk diffusion (mm): 16 mm
KPN K3070_S; [7]
  Disk diffusion (mm): 17 mm
PAE P1618_R; [5]
  Disk diffusion (mm): 12 mm
PAE P1618_R; [6]
  Disk diffusion (mm): 13 mm
PAE P1618_R; [7]
  Disk diffusion (mm): 13 mm
PAE P1624_R; [5]
  Disk diffusion (mm): 12 mm
PAE P1624_R; [6]
  Disk diffusion (mm): 12 mm
PAE P1624_R; [7]
  Disk diffusion (mm): 12 mm
